Data from ChEMBL document CHEMBL6153147 (J Med Chem, 2025).

Assays:
[1] = Metabolic stability in human liver microsomes assessed as intrinsic clearance preincubated for 5 mins followed by NADPH addition by LC-MS/MS analysis; type: ADME, Microsome; details: read-out: CLH
[2] = Selectivity ratio of IC50 for inhibition of human PLK2 using ATF2 as substrate to IC50 for inhibition of human PLK1 using ATF2 as substrate
[3] = Half life in C57BL/6 mouse at 10 mg/kg, po measured for 0.5 to 12 htr by LC-MS/MS analysis; type: ADME, organism-based; details: in vivo, time 0.5-12 hrs
[4] = Acute hematopoietic toxicity in mouse assessed as effect on platelets at 500 mg/kg, IG qd treated for 7 days; type: organism-based; details: in vivo, po, 168 h, time 7 day
[5] = MRT (0 to t) in C57BL/6 mouse at 1 mg/kg, iv measured for 0.5 to 12 htr by LC-MS/MS analysis; type: ADME, organism-based; details: in vivo, time 0.5-12 hrs
[6] = biological target: Serine/threonine-protein kinase PLK1 (Homo sapiens, UniProt P53350); assay: Inhibition of human PLK1 using ATF2 as substrate incubated for 40 mins in presence of [gamma-33P]ATP/Mg acetate by scintillation counting analysis
[7] = biological target: Serine/threonine-protein kinase MRCK alpha (Homo sapiens) (UniProt Q5VT25); assay: Inhibition of human MRCK-alpha assessed as residual activity at 10 uM by kinome selectivity profiling analysis relative to control
[8] = Stability of compound in human hepatocytes; type: ADME, cell-based, Hepatocyte
[9] = biological target: Glycogen synthase kinase-3 beta (Homo sapiens) (UniProt P49841); assay: Inhibition of human GSK-3beta assessed as residual activity at 10 uM by kinome selectivity profiling analysis relative to control
[10] = Tmax in C57BL/6 mouse at 10 mg/kg, po measured for 0.5 to 12 htr by LC-MS/MS analysis; type: ADME, organism-based; details: in vivo, time 0.5-12 hrs
[11] = biological target: Myosin-IIIb (Homo sapiens) (UniProt Q8WXR4); assay: Inhibition of human MYO3B assessed as residual activity at 10 uM by kinome selectivity profiling analysis relative to control
[12] = AUC (0 to infinity) in C57BL/6 mouse at 10 mg/kg, po measured for 0.5 to 12 htr by LC-MS/MS analysis; type: ADME, organism-based; details: in vivo, time 0.5-12 hrs
[13] = Half life in C57BL/6 mouse at 1 mg/kg, iv measured for 0.5 to 12 htr by LC-MS/MS analysis; type: ADME, organism-based; details: in vivo, time 0.5-12 hrs
[14] = Tmax in C57BL/6 mouse at 1 mg/kg, iv measured for 0.5 to 12 htr by LC-MS/MS analysis; type: ADME, organism-based; details: in vivo, time 0.5-12 hrs
[15] = Metabolic stability in dog liver microsomes assessed as half life preincubated for 5 mins followed by NADPH addition by LC-MS/MS analysis; type: ADME, Canis lupus familiaris, Microsome
[16] = Acute toxicity in mouse assessed as damage in spleen at 500 mg/kg, IG qd treated for 7 days by H and E staining based analysis; type: organism-based; details: in vivo, po, 168 h, time 7 day
[17] = Metabolic stability in mouse liver microsomes assessed as intrinsic clearance in microsome measured per mg protein preincubated for 5 mins followed by NADPH addition by LC-MS/MS analysis; type: ADME; details: read-out: CLH
[18] = biological target: Serine/threonine-protein kinase PLK2 (Homo sapiens, UniProt Q9NYY3); assay: Inhibition of human PLK2 assessed as residual activity at 10 uM by kinome selectivity profiling analysis relative to control
[19] = biological target: TRAF2 and NCK-interacting protein kinase (Homo sapiens) (UniProt Q9UKE5); assay: Inhibition of human TNIK assessed as residual activity at 10 uM by kinome selectivity profiling analysis relative to control
K562 [20] = assay: Antitumor activity against human K562 cells xenografted in BALB/c mouse assessed as suppression of tumor growth administered intragastrically for 11 days treated on every 3 to 4 days; type: functional, cell-based; details: dose 10-20 mg/kg, route ig, time 11.0 day
KG-1 = assay: cells; details: Homo sapiens
[21] = Cmax in C57BL/6 mouse at 1 mg/kg, iv measured for 0.5 to […] htr by LC-MS/MS analysis; type: ADME, organism-based; details: in vivo, time 0.5-12 hrs
[22] = Acute toxicity in mouse assessed as damage in liver at 500 mg/kg, IG qd treated for 7 days by H and E staining based analysis; type: organism-based; details: in vivo, po, 168 h, time 7 day
Cytochrome P450 2C8 = Cytochrome P450 2C8 (Homo sapiens, UniProt P10632); assay: Inhibition of CYP2C8 in human liver microsomes using paclitaxel as substrate preincubated with compound followed by substrate addition measured after 10 mins in presence of NADPH by LC-MS/MS analysis; type: ADME, Microsome
K562 [23] = assay: cells; details: Homo sapiens
Cytochrome P450 2C19 = Cytochrome P450 2C19 (Homo sapiens, UniProt P33261); assay: Inhibition of CYP2C19 in human liver microsomes using S-mephenytoin as substrate preincubated with compound followed by substrate addition measured after 10 mins in presence of NADPH by LC-MS/MS analysis; type: ADME, Microsome
Homo sapiens = species on record: Homo sapiens; assay: Inhibition of human ABL assessed as residual activity at 10 uM by kinome selectivity profiling analysis relative to control
[24] = Effect on mitochondrial membrane integrity in HEK293T cells at 10 uM incubated for 24 hrs by JC-1 dye based analysis; type: toxicity, cell-based; details: human, hek-293t
HEK-293T = assay: Effect on mitochondrial membrane potential in HEK293T cells at 10 uM incubated for 24 hrs by MitoTracker Red probe based analysis; type: toxicity, cell-based; details: human
[25] = biological target: Eukaryotic translation initiation factor 2-alpha kinase 3 (Homo sapiens) (UniProt Q9NZJ5); assay: Inhibition of human PEK assessed as residual activity at 10 uM by kinome selectivity profiling analysis relative to control
[26] = biological target: Calcium/calmodulin-dependent protein kinase kinase 1 (Homo sapiens) (UniProt Q8N5S9); assay: Inhibition of human CaMKK1 assessed as residual activity at 10 uM by kinome selectivity profiling analysis relative to control
[27] = AUC (0 to t) in C57BL/6 mouse at 10 mg/kg, po measured for 0.5 to […] htr by LC-MS/MS analysis; type: ADME, organism-based; details: in vivo, time 0.5-12 hrs
Cytochrome P450 3A4 = Cytochrome P450 3A4 (Homo sapiens, UniProt P08684); assay: Inhibition of CYP3A4 in human liver microsomes using testosterone as substrate preincubated with compound followed by substrate addition measured after 10 mins in presence of NADPH by LC-MS/MS analysis; type: ADME, Microsome
[28] = Acute toxicity in mouse assessed as damage in kidney at 500 mg/kg, IG qd treated for 7 days by H and E staining based analysis; type: organism-based; details: in vivo, po, 168 h, time 7 day
[29] = Acute toxicity in mouse assessed as damage in heart at 500 mg/kg, IG qd treated for 7 days by H and E staining based analysis; type: organism-based; details: in vivo, po, 168 h, time 7 day
Cytochrome P450 2D6 = Cytochrome P450 2D6 (Homo sapiens, UniProt P10635); assay: Inhibition of CYP2D6 in human liver microsomes using dextromethorphan as substrate preincubated with compound followed by substrate addition measured after 10 mins in presence of NADPH by LC-MS/MS analysis; type: ADME, Microsome
[30] = MRT (0 to t) in C57BL/6 mouse at 10 mg/kg, po measured for 0.5 to 12 htr by LC-MS/MS analysis; type: ADME, organism-based; details: in vivo, time 0.5-12 hrs

Cytochrome P450 2D6, sequence (P10635 whole entry): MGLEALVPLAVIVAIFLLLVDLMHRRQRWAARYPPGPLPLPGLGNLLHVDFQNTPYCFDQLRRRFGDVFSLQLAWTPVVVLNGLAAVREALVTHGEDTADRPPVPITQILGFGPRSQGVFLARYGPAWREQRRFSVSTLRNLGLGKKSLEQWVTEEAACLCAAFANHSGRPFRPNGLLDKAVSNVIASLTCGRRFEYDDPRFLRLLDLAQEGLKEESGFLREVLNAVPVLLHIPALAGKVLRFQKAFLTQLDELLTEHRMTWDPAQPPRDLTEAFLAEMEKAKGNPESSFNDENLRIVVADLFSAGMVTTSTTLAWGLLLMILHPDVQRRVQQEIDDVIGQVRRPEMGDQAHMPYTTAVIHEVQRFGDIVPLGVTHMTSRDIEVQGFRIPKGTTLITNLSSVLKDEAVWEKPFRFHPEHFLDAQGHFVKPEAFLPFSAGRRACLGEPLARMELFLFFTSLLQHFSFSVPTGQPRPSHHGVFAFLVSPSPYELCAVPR
Eukaryotic translation initiation factor 2-alpha kinase 3 (Homo sapiens), sequence (Q9NZJ5 whole entry): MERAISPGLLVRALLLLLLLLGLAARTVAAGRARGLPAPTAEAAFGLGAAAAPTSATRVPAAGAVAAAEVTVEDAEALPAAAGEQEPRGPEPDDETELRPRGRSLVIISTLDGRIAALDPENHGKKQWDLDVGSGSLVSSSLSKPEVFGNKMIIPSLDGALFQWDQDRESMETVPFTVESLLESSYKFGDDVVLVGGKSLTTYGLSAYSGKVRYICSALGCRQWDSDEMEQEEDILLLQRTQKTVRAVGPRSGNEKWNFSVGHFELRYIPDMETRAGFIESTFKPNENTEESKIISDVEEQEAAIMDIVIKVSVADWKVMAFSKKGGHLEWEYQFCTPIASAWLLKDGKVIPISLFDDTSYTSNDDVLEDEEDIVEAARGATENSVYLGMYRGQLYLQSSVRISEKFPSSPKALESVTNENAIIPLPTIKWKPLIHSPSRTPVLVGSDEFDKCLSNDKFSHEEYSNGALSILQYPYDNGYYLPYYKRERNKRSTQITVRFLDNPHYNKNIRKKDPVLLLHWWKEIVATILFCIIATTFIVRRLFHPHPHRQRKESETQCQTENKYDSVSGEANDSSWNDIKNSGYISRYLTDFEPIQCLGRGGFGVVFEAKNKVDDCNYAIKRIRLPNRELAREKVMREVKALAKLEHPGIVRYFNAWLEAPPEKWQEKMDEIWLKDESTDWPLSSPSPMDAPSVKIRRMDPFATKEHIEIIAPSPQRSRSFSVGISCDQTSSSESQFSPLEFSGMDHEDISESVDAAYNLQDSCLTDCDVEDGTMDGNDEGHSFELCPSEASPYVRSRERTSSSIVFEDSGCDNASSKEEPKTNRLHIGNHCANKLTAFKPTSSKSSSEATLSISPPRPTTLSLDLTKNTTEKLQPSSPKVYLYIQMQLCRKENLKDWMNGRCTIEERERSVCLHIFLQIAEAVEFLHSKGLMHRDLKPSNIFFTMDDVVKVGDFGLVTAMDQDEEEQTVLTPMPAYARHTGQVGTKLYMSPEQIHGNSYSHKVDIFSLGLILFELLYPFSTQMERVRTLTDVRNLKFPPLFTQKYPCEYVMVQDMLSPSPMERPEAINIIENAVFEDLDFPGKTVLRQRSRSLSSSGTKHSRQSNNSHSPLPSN
Serine/threonine-protein kinase MRCK alpha (Homo sapiens), sequence (Q5VT25 whole entry): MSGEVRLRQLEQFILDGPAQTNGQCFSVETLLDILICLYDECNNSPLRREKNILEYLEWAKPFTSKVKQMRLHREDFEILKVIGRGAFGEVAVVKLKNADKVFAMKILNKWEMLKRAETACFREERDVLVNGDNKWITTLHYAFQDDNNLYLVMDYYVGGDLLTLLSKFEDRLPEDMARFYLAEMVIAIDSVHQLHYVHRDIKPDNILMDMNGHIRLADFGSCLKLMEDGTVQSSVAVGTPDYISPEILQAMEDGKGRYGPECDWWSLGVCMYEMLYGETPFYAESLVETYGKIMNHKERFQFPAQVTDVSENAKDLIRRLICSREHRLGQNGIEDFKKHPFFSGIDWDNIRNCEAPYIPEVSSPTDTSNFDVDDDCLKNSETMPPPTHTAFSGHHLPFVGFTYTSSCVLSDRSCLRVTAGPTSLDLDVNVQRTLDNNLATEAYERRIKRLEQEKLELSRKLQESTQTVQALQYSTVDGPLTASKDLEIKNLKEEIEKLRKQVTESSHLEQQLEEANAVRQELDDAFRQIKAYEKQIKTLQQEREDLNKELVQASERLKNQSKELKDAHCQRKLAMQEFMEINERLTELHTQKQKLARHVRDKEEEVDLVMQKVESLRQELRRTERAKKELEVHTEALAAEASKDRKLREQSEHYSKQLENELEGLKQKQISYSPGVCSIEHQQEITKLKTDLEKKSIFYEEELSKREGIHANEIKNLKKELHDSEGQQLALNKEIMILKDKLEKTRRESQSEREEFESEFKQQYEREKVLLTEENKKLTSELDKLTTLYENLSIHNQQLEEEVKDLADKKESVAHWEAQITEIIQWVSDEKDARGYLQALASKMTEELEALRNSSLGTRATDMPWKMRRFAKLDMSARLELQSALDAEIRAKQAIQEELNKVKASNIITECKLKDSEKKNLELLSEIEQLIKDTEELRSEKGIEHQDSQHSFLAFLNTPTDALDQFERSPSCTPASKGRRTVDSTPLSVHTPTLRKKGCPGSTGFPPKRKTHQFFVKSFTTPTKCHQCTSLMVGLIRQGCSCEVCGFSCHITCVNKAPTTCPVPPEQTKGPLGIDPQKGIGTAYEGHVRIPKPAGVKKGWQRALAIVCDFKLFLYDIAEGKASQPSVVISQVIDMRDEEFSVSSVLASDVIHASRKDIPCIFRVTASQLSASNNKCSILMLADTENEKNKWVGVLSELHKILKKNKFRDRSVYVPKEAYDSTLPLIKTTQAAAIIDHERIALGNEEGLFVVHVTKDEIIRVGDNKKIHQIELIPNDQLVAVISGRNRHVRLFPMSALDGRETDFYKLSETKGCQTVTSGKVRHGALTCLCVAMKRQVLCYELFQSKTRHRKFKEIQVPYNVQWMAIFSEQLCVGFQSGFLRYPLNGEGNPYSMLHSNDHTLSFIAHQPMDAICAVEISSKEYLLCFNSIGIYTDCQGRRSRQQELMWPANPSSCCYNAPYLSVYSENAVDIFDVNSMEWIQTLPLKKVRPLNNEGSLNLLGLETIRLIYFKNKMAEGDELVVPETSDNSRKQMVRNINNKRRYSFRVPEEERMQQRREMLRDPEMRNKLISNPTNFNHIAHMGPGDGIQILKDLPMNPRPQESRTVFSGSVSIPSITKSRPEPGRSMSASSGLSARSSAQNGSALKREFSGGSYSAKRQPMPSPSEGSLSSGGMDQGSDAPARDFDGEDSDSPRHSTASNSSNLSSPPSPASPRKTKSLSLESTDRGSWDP
TRAF2 and NCK-interacting protein kinase (Homo sapiens), sequence (Q9UKE5 whole entry, looked up): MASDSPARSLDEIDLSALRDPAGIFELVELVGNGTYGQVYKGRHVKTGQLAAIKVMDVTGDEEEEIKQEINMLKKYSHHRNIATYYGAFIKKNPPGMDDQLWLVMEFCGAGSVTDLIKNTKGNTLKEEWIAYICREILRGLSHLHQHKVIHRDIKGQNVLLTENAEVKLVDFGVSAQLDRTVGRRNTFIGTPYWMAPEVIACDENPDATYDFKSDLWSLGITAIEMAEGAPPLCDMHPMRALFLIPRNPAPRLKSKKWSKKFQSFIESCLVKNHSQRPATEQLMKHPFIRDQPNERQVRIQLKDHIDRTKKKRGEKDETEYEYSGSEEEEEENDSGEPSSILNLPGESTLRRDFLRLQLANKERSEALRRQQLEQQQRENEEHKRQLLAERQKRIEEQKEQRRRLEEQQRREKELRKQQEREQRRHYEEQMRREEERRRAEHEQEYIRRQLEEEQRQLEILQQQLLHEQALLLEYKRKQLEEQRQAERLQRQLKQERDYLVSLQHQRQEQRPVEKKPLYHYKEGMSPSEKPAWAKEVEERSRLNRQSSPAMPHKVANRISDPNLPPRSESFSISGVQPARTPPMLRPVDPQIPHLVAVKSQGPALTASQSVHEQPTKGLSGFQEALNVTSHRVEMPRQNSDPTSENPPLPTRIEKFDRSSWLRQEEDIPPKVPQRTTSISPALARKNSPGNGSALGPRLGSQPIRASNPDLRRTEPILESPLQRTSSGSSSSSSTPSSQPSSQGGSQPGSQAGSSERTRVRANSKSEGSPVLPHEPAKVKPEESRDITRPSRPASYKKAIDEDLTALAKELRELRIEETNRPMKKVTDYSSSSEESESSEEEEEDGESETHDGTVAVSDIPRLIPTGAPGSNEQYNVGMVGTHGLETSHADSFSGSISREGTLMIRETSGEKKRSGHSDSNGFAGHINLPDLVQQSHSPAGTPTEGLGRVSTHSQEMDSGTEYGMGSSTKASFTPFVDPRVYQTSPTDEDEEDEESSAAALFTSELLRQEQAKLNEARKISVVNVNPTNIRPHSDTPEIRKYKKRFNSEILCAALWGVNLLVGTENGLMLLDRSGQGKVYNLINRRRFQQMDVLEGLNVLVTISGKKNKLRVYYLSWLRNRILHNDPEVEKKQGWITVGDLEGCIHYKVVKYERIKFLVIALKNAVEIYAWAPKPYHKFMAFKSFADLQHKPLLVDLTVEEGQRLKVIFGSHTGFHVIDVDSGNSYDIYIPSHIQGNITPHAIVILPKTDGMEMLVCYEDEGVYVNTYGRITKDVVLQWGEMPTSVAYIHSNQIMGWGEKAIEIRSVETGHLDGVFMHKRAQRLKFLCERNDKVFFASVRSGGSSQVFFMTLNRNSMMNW
Glycogen synthase kinase-3 beta (Homo sapiens), sequence (P49841 whole entry, looked up): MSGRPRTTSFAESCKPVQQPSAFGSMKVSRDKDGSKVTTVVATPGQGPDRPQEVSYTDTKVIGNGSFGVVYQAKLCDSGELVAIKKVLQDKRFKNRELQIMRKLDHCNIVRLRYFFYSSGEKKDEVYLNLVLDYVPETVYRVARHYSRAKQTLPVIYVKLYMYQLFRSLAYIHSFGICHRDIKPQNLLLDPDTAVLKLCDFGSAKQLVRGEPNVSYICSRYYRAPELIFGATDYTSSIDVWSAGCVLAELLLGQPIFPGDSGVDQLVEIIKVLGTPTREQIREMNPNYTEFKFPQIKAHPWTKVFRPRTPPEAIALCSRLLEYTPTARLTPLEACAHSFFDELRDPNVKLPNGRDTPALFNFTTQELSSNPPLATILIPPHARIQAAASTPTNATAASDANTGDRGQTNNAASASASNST

For `CC[C@@H]1C(=O)N(C)c2cnc(Nc3cc(N4CCN(C)CC4)cc(Cl)c3OCCCO)nc2N1C1CCCC1`, the CLint scaled [1] was 85.6 mL/min/kg, the ratio [2] was > 601 and the half-life [3] was 72 min. The Activity [4] was “Non-toxic”, the MRT last [5] was 39.6 min and the IC50 [6] was 20 nM. For the same compound, the Activity [7] was 129%, the Stability [8] was “Stable” and the Activity [9] was 112%. It also gave a Tmax [10] of 45 min, an Activity [11] of 44% and an AUC(0-inf) [12] of 825 ng·h/mL. The half-life [13] was 35.4 min, the Tmax [14] was 4.98 min and the half-life [15] was 17.3 min. For the same compound, the Activity [16] was “Non-toxic”, the microsomal CLint [17] was 210 µL/min/mg and the Activity [18] was 48%. The Activity [19] was 77%, the Activity (K562 [20]) was “Dose-dependent-effect; Demonstrated Comparable Or Remarkably Improved Therapeutic Efficacy Compared To Bi 2536 At 10 Mg/Kg (I.P.)” and the IC50 (KG-1) was > 10 µM. The Cmax [21] was 264 ng/mL, the Activity [22] was “Non-toxic” and the IC50 (Cytochrome P450 2C8) was > 10 µM. For the same compound, the IC50 (K562 [23]) was 0.08 nM, the IC50 (Cytochrome P450 2C19) was 1900 nM and the Activity (Homo sapiens) was 108%. The Activity [24] was “Non-toxic”, the Activity (HEK-293T) was “Non-toxic” and the Activity [25] was 80%. The Activity [26] was 70%, the AUC(0-t) [27] was 820 ng·h/mL and the IC50 (Cytochrome P450 3A4) was > 10 µM. For the same compound, the Activity [28] was “Non-toxic”, the Activity [29] was “Non-toxic” and the IC50 (Cytochrome P450 2D6) was > 10 µM. The MRT last [30] was 2 h.
